A word on the IC50: it is the concentration that inhibits the measured activity by half. Read a low IC50 as greater potency.

The source of these data is BindingDB's records for patent US10508109 (ONCOTHERAPY SCIENCE, INC., 2019).

The target of the experiment is Histone-lysine N-methyltransferase SUV39H2 (Human, UniProt Q9H5I1). Briefly: Suv 39H2 Assay. Here is the method:
Assay buffer (4 μL) was added into all the wells, including test compound and control wells (except for Sinefungin control wells), using the Multidrop Combi. The plate was centrifuged at 1000 rpm for 1 min. […] SUV39H2 (8 μL, final conc: optimized for each lot of the enzyme based on specific activity) was added by using the Multidrop Combi. The assay plate was centrifuged at 1000 rpm for 1 min. Assay buffer was used as background control, and incubated at room temperature for 3 hours. The reaction was stopped with 20 μL of 2.5 mg/mL Streptavidin SPA beads (final conc. 50 μg/well) in buffer using the Multidrop Combi and centrifuged for 1 min. The plate was loaded into the Trilux-Microbeta counter and a delayed read of 10 hours was made. The radioactive signal was measured at 1 min/well. Sinefungin and the internal standard compound were used as tool compounds to determine assay performance.

Histone-lysine N-methyltransferase SUV39H2, sequence (Q9H5I1 whole entry): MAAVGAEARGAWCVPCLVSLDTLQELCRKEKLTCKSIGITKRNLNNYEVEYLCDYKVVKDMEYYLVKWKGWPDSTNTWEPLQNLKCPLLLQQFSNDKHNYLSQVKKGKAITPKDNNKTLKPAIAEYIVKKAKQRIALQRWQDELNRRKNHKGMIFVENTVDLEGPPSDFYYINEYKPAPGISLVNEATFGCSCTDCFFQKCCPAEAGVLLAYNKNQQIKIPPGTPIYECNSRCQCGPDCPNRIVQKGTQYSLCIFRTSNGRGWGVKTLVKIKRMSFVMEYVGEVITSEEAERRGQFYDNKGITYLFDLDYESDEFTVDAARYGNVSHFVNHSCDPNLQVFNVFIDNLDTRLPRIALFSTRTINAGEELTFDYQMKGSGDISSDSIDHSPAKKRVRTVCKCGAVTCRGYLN

For `COc1cc(CO)c(-c2cn3ccc(N4CCC(NC(C)=O)C4)cc3n2)cc1Cl` (stereo unspecified) [US10508109, Example 37], the IC50 came to 4.35 nM. For `COc1cc(CO)c(-c2cn3ccc(N4CCC(NS(=O)(=O)N(C)C)CC4)cc3n2)cc1Cl` [US10508109, Example 181] the value was 13.9 nM; for `COc1cc(CO)c(-c2cn3ccc(N4CCN(P(=O)(CO)OC)CC4)cc3n2)cc1Cl` (stereo unspecified) [US10508109, Example 203], 1.77 nM. On to `COc1cc(CO)c(-c2cn3ccc(N4CCN(S(=O)(=O)Cc5ccccc5)CC4)cc3n2)cc1Cl` [US10508109, Example 179], for which the midpoint of inhibition, the IC50, lay at 32.2 nM. Under `CCCS(=O)(=O)NC1CCN(c2ccn3cc(-c4cc(Cl)c(OC)cc4CO)nc3c2)CC1` [US10508109, Example 174] stands 10.4 nM. Under `COc1cc(CO)c(-c2cn3ccc(OC4CCN(S(=O)(=O)c5cccs5)CC4)cc3n2)cc1Cl` [US10508109, Example 280] stands 71.1 nM.

`COc1cc(CO)c(-c2cn3ccc(C4=CCN(CCN5CCCCC5)CC4)cc3n2)cc1Cl` [US10508109, Example 147] displayed an IC50 of 29.5 nM.

The molecule `COc1cc(CO)c(-c2cn3ccc(N4CCC(NC(=O)CCNC(=O)OC(C)(C)C)C4)nc3n2)cc1Br` (stereo unspecified) [US10508109, Example 65] gave an IC50 of 14 nM. Under `COc1cc(CO)c(-c2cn3ccc(N4CCC(N5CCCS5(=O)=O)CC4)cc3n2)cc1Cl` [US10508109, Example 182] stands 6.97 nM.

As for `COc1cc(CO)c(-c2cn3ccc(N4CCN(S(=O)(=O)C(C)C)CC4)cc3n2)cc1Cl` [US10508109, Example 178], the IC50 is 14.3 nM. For `COc1cc(CO)c(-c2cn3ccc(N(C)CCNC(=O)OC(C)(C)C)cc3n2)cc1Cl` [US10508109, Example 48] the value was 12.4 nM; for `COc1cc(CO)c(-c2cn3ccc(N4CCC(NC(N)=O)C4)cc3n2)cc1Cl` (stereo unspecified) [US10508109, Example 38], 4.11 nM. Consider `COc1cc(CO)c(-c2cn3ccc(N4CCC(N)CC4)nc3n2)cc1Cl` [US10508109, Example 42], for which inhibition was half-maximal at 79 nM (IC50).

For the molecule `COc1cc(CO)c(-c2cn3ccc(N4CCN(CCO)CC4)cc3n2)cc1Cl` [US10508109, Example 43], 8.54 nM corresponded to half-maximal inhibition (IC50). Under `COc1cc(CO)c(-c2cn3ccc(N4CCN(CCNC(=O)OC(C)(C)C)CC4)cc3n2)cc1Cl` [US10508109, Example 28] stands 21 nM; under `COc1cc(CO)c(-c2cn3ccc(N4CC[C@H](N)C4)cc3n2)cc1Cl` [US10508109, Example 47], 8.29 nM.
